Test results published in patent publication US20130149701A1, “METHODS OF IDENTIFYING THERAPEUTIC AGENTS FOR TREATING PERSISTER AND BACTERIAL INFECTION” (priority 2010, published 2013).
≈ marks a conversion by molar mass, not a printed value. Entries after “also recorded” stand apart in the source; their conditions may differ. Read-outs that look alike come from different tables or passages of the source.

Columns and labels:
[1] = biological target: mutant RpsAΔA438 from the PZA-resistant strain DHM444 (Mycobacterium tuberculosis, UniProt P9WH43, DEL438-438); type: binding, M. tuberculosis
[2] = test system: M. tuberculosis strains (wild type and wild type/pOLYG, and wild type/pOLYG+rpsA); assay: microbe, parasite or virus in culture; type: cell-based; conditions: for MIC: Mycobacterium tuberculosis, read-out: minimum inhibitory concentration (MIC); for susceptibility of the RpsA overexpressing Mtb strain to other drugs: compared with parent strain or vector control strain, pH6.8
[3] = biological target: DHM444 mutant RpsA binding to tmRNA (Mycobacterium tuberculosis, UniProt P9WH43, DEL438-438); set-up: species or system M. tuberculosis
M. tuberculosis = type: cell-based
[4] = test system: Mtb clinical isolate DHM444 / H37Rv; assay: microbe, parasite or virus in culture; type: cell-based, M. tuberculosis; conditions: Mycobacterium tuberculosis

NC(=O)c1cnccn1 [PZA, Pyrazinamide]
binding to mutant RpsA (ITC) [1]: did not bind; also recorded: failed to bind | MIC ([2]; pH 5.5, PZA, vector control and parental Mtb strain, pH 5.5): 100 µg/mL (≈ 812 µM) | MIC ([2]; pH 5.5): 500 µg/mL (≈ 4060 µM) | increase in the minimum inhibitory concentration (MIC) ([2]; pH 5.5): 5 fold | effect on tmRNA binding to mutant RpsA [3]: no effect; also recorded: not affected | MIC (M. tuberculosis): 10 µg/mL (≈ 81.2 µM) | PZA susceptibility (M. tuberculosis): more susceptible | effect on PZA susceptibility (M. tuberculosis): did not have significant effect | reduction in MIC (M. tuberculosis): 5 fold | MIC [4]: 200 to 300 µg/mL (≈ 1620 to 2440 µM)

O=C(O)c1cnccn1 [POA, 2-pyrazinecarboxylic acid]
binding to mutant RpsA (ITC) [1]: not and failed to bind | effect on tmRNA binding to mutant RpsA [3]: did not inhibit

CCn1cc(C(=O)O)c(=O)c2cc(F)c(N3CCNCC3)cc21 [norfloxacin]
susceptibility of the RpsA overexpressing Mtb strain to other drugs [2]: remained the same

[H]/N=C(/N)N[C@H]1[C@H](O)[C@@H](O)[C@H](O[C@@H]2O[C@@H](C)[C@](O)(C=O)[C@H]2O[C@@H]2O[C@@H](CO)[C@H](O)[C@@H](O)[C@@H]2NC)[C@@H](N/C(N)=N\[H])[C@@H]1O [streptomycin]
susceptibility of the RpsA overexpressing Mtb strain to other drugs [2]: remained the same

CO[C@H]1/C=C/O[C@@]2(C)Oc3c(C)c(O)c4c(O)c(c(/C=N/N5CCN(C)CC5)c(O)c4c3C2=O)NC(=O)/C(C)=C\C=C\[C@H](C)[C@H](O)[C@@H](C)[C@@H](O)[C@@H](C)[C@H](OC(C)=O)[C@@H]1C [rifampin]
susceptibility of the RpsA overexpressing Mtb strain to other drugs [2]: remained the same

NNC(=O)c1ccncc1 [INH, isoniazid]
susceptibility of the RpsA overexpressing Mtb strain to other drugs [2]: remained the same | effect on tmRNA binding to mutant RpsA [3]: no effect; also recorded: not affected
